From patent US6569863B1, “Bicyclic heteroamatic compounds useful as LH agonists” (Akzo Nobel NV, priority 1999, dated 2003)
pEC50: −log10 of the molar value.

Tests used:
[1] = target: T1, Leydig cell LH receptor (Mus musculus, UniProt P30730); assay: In vitro test for LH bioactivity in mouse Leydig cells (testosterone production); format: cell-based; settings: 4 h incubation, testosterone measured by RIA
T1 construct: Leydig cells are isolated from the testes of mature, 9 to 13 weeks old, mice; from tissue; host or cells: primary Leydig cells from mouse testes (strain HSD/Cpb: S E, Harlan)
Text: In male mice, the luteinising hormone (LH) induces testosterone production in testicular Leydig cells. […] The in vitro Leydig cell assay (van Damme et al, 1974; modified by Mannaerts et al, 1987) is used to determine the LH bioactivity of compounds that bind to the Leydig cell LH receptor which in turn causes testosterone production.
For this assay, Leydig cells are isolated from the testes of mature, 9 to 13 weeks old, mice (strain: HSD/Cpb: S E, Harlan, The Netherlands). Therefore, mice are killed and the testes are quickly removed and decapsulated. Each testis is transferred to a separate well of a tissue culture plate containing 0.75 ml culture medium per well. The contents of each well are passed through a 30 cm glass tube (inside diameter 2.5 mm, narrowed to 1.2 mm at 4 places in the middle). The suspension obtained is filtered through a 30 μm nylon mesh and the filtrate is pre-incubated in a 50 ml plastic tube for 30 min. at 37° C. in an incubator in a water-saturated atmosphere of 95% air/5% CO2. Following preincubation the tube is centrifuged at 1600 N/kg for 5 min and the supernatant is decanted. The resulting pellet is resuspended in culture medium (0.5 mg original testis/ml) and the suspension is kept homogeneous by stirring it very slowly on a magnetic stirrer.
This Leydig cell suspension (100 μl) is added to the wells of a micotiter plate containing 50 μl reference compound, test compound or vehicle (culture medium) per well. As a to reference, LH or hCG in-house standards are used which are calibrated against International Reference preparations of human LH or hCG provided by the National Institute for Biological Standards and Controls (NIBSC, London, UK). Test and reference compounds are dissolved, diluted and assayed in the same culture medium. The plates containing reference and test compounds are incubated for 4 h at 37° C. in an incubator in a water-saturated atmosphere of 95% air/5% CO2. Following incubation, plates are sealed and stored at −20° C. until testosterone measurement.
Prior to testosterone measurement, the contents of the microtiter plates are thawed at room temperature and the plates are centriged at 150 N/kg for 5 min. An aliquot of 30 μl supernatant of each well is diluted with culture medium (60×) to obtain a suitable dilution for testosterone measurement. Aliquots (12.5 μl) of each diluted test sample are then assayed using a direct testosterone RIA-kit.

[2] = test system: immature female mice; assay: In vivo ovulation induction assay for LH bioactivity in immature female mice; parameters: species or system mouse; settings: 50 mg/kg p.o., FSH-primed immature female mice, 24 h after administration
Text: In female immature mice which are stimulated with follicle stimulating hormone (FSH), ovulation can be induced by luteininzing hormone (LH) or by human chorionic gonadotrophin (hCG) which binds to the same LH-receptor on the Graafian follicles. Binding to the LH-receptor initiates a biochemical cascade, which eventually results in follicular rupture and extrusion of a mature oocyte. To measure the in vivo activity of LH-agonistic compounds, inunature 20 days old mice (B6D2F1 stain, Broekman Institute, the Netherlands) are primed with unary FSH (Humegon; 12.5 IU/l, 0.1 ml s.c.) to initiate folliculogenesis. Forty-eight hours after FSH treatment test compound, reference compound or vehicle (10% cremophor solution) are administered to the animals. Test compounds (50 mg/kg in 0.1 ml) and vehicle (0.1 ml) are administered p.o., reference compounds (500 IU/kg hCG in 0.1 ml) are injected s.c. As a reference, hCG in-house standards are used which are calibrated against International Reference preparations of human hCG provided by the National Institute for Biological Standards and Controls (NMSC, London, UK). Twenty-four hours after administration of test compound, reference compound or vehicle, animals are killed by cervical dislocation. The oviducts are dissected and collected in 0.9% NaCl. Next, the oviducts are placed between two glass plates and examined for the presence or absence of ovulated ova under a microscope. The number of ovulated ova present in the oviducts is indicative for in vivo LH-bioactivity.

T1 sequence (P30730 27-700): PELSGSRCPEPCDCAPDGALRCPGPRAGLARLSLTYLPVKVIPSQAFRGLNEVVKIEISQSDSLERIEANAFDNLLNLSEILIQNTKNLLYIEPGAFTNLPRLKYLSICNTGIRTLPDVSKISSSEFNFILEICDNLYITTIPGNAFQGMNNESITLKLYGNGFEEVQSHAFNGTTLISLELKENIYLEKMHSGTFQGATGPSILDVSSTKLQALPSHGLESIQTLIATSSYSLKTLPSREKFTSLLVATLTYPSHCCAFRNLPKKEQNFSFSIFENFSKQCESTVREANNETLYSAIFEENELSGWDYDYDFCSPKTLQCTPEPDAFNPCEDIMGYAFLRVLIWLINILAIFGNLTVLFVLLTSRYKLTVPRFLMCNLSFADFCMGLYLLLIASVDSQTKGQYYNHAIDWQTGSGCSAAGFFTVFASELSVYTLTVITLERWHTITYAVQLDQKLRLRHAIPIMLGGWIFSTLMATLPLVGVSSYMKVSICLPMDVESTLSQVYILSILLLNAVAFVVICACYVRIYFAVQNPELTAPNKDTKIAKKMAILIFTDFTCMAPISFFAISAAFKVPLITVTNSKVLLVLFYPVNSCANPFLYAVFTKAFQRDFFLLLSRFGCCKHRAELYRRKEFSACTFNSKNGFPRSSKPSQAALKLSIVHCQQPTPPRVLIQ

Q: How did the pEC50 [1] turn out when `CSc1nc(-c2cccc(NC(=O)c3ccccc3)c2)c2c(N)c(C(=O)NC(C)(C)C)sc2n1` [Example 111, tert-Butyl 5-Amino-2-methylthio-4-(N-benzoyl-3-aminophenyl)-thieno[2,3-d]pyrimidine-6-carboxamide] was run?
A: The pEC50 was 6.55.

Q: And the “Mouse in vivo ovulation induction (% ovulating animals)” value (“Mouse … (% ovulating animals)” for short) [2]?
A: The value was 40%.

Q: With `COc1cccc(-c2nc(SC)nc3sc(C(=O)NC(C)(C)C)c(N)c23)c1` [Example 112, tert-Butyl 5-Amino-2-methylthio-4-(3-methoxyphenyl)-thieno[2,3-d]pyrimidine-6-carboxamide] as the molecule, how does the pEC50 [1] read?
A: The pEC50 was 6.37.

Q: And the “Mouse … (% ovulating animals)” value [2]?
A: Its value is 40%.

Q: What does the source list for `COc1cccc(-c2nc(SC)nc3sc(C(=O)N(C)C(C)C)c(N)c23)c1` [Example 113, N-Methyl-N-isopropyl 5-Amino-2-methylthio-4-(3-methoxyphenyl)-thieno[2,3-d]pyrimidine-6-carboxamide]?
A: pEC50 [1]: 6.06; Mouse in vivo ovulation induction (% ovulating animals) [2]: 50%

Q: How did the pEC50 [1] turn out when `CCOc1nc(-c2cccc(OC)c2)c2c(N)c(C(=O)NC(C)(C)C)sc2n1` [Example 114, tert-Butyl 5-Amino-2-ethoxy-4-(3-methoxyphenyl)-thieno[2,3-d]pyrimidine-6-carboxamide] was run?
A: Its pEC50 is 5.72.

Q: What about the “Mouse … (% ovulating animals)” value [2] of the same molecule?
A: Its value is 30%.

Q: What does the source list for `COc1cccc(-c2nc(-c3cccs3)nc3sc(C(=O)N4CCOCC4)c(N)c23)c1` [Example 115, 5-Amino-2-(2-thienyl)-4-(3-methoxyphenyl)-6-(N-morpholinocarbonyl)thieno[2,3-d]pyrimidine]?
A: pEC50 [1]: 5.51; Mouse in vivo ovulation induction (% ovulating animals) [2]: 20%

Q: With `CSc1nc(-c2cccc(NC(=O)CNC(C)(C)C)c2)c2c(N)c(C(=O)NC(C)(C)C)sc2n1` [Example 116, tert-Butyl 5-Amino-2-methylthio-4-(N-(2-(tert-butylamino)acetyl)-3-aminophenyl)-thieno[2,3-d]pyrimidine-6-carboxamide] as the molecule, how does the pEC50 [1] read?
A: Its pEC50 is 6.49.

Q: What about the “Mouse … (% ovulating animals)” value [2] of the same molecule?
A: The value was 13%.

Q: `CSc1nc(-c2cccc(OCCCc3cccnc3)c2)c2c(N)c(C(=O)NC(C)(C)C)sc2n1` [Example 117, tert-Butyl 5-Amino-2-methylthio-4-(3-(3-(3-pyridyl)-propoxy)phenyl)-thieno[2,3-d]pyrimidine-6-carboxamide] was tested. Which pEC50 [1] did it give?
A: The pEC50 was 5.74.

Q: What about the “Mouse … (% ovulating animals)” value [2] of the same molecule?
A: The value was 40%.
